Target: Rv1026/PPX2 (6×His-Rv1026) (Mycobacterium tuberculosis, UniProt P96374)
Sequence (P96374 whole entry): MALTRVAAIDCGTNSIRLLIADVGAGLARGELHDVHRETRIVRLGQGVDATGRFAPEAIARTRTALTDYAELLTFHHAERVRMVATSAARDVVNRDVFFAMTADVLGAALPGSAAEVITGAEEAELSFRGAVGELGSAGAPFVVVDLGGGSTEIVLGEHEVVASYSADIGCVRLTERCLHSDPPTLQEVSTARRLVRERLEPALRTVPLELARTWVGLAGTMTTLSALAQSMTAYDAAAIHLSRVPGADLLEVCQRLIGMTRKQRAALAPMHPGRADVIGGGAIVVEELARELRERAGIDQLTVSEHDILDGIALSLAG

SMILES | DAPI-based poly(P) hydrolysis assay
Nc1nc2c(ncn2[C@@H]2O[C@H](COP(=O)(O)OP(=O)(O)O)[C@@H](O)[C@H]2O)c(=O)[nH]1 [GDP] | accelerated when recombinant protein was incubated with AMP/ADP and GMP/GDP
Nc1ncnc2c1ncn2[C@@H]1O[C@H](COP(=O)(O)OP(=O)(O)O)[C@@H](O)[C@H]1O [ADP] | accelerated when recombinant protein was incubated with AMP/ADP and GMP/GDP
Nc1nc2c(ncn2[C@@H]2O[C@H](COP(=O)(O)O)[C@@H](O)[C@H]2O)c(=O)[nH]1 [GMP] | accelerated when recombinant protein was incubated with AMP/ADP and GMP/GDP
Nc1ncnc2c1ncn2[C@@H]1O[C@H](COP(=O)(O)O)[C@@H](O)[C@H]1O [AMP] | accelerated when recombinant protein was incubated with AMP/ADP and GMP/GDP

Reference: article PMC4453511 (mBio, 2015)
